Among the data in patent US7439396B2, “Pharmaceutical/cosmetic compositions comprising novel ligands that activate RAR receptors” (Galderma Research & Development, priority 2003, dated 2008) are AC50 and Kd values, retold here.

What all share (format): cell-based
The target in one test is T1, RAR gamma (Homo sapiens, UniProt P13631).
T1 sequence (P13631 185-419 limits assumed): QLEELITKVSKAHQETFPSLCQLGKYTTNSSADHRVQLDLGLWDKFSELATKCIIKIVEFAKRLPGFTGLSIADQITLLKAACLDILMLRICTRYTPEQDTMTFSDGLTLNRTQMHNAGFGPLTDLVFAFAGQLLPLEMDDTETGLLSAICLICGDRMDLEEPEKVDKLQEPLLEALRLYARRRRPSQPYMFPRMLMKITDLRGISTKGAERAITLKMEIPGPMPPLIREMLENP
Put plainly: Transactivation test, HeLa cells stably transfected with RAR gamma ER-DBD and ERE-luciferase reporter. Particulars: for AC50: at the reference ligand concentration that gives 80% activation; for Kd: crossed curves against reference antagonist, Schild regression, read-out: RAR gamma Kd app. The procedure:
(§1) The activation of receptors with an agonist (activator) in HeLa cells leads to the expression of a reporter gene, luciferase, which, in the presence of a substrate, generates light. The activation of the receptors may thus be measured by quantifying the luminescence produced after incubating the cells in the presence of a reference antagonist. The activating products displace the antagonist from its site, thus permitting activation of the receptor. The activity is measured by quantifying the increase in light produced. This measurement makes it possible to determine the activating activity of the compounds according to the invention.
(§2) In this study, a constant is determined which is the affinity of the molecule for the receptor. Since this value can fluctuate depending on the basal activity and the expression of the receptor, it is referred to as the Kd apparent (KdApp).
(§3) To determine this constant, “crossed curves” of the test product against a reference antagonist, 4-(5,5-dimethyl-8-p-tolyl-5,6-dihydro-2-naphthalen-2-ylethynyl)benzoic acid, are performed in 96-well plates. The test product is used at 10 concentrations and the reference antagonist at 7 concentrations. In each well, the cells are in contact with a concentration of the test product and a concentration of the reference antagonist, 4-(5,5-dimethyl-8-p-tolyl-5,6-dihydro-2-naphthalen-2-ylethynyl)benzoic acid. Measurements are also taken for the total agonist (4-[2-(5,5,8,8-tetramethyl-5,6,7,8-tetrahydro-2-naphthyl)propenyl]benzoic acid) and inverse agonist, 4-{(E)-3-[4-(4-tert-butylphenyl)-5,5,8,8-tetramethyl-5,6,7,8-tetrahydro-2-naphthyl]-3-oxopropenyl}benzoic acid, controls.
(§4) These crossed curves make it possible to determine the AC50 values (concentration at which 50% activation is observed) for the reference ligand at various concentrations of test product. These AC50 values are used to calculate the Schild regression by plotting a straight line corresponding to the Schild equation (“Quantitation in Receptor Pharmacology” Terry P. Kenakin, Receptors and Channels, 2001, 7, 371-385).
(§5) In the case of an agonist, an AC50 value (concentration that gives 50% of the activity) is calculated by plotting the curve of the product at the concentration of the reference ligand that gives 80% activation.
(§6) The HeLa cell lines used are stable transfectants containing the plasmids ERE-μGlob-Luc-SV-Neo (reporter gene) and RAR (α, β, γ) ER-DBD-puro. These cells are inoculated into 96-well plates at a rate of 10 000 cells per well in 100 μl of DMEM medium without phenol red, and supplemented with 10% defatted calf serum. […]
(§7) The culture medium is removed by turning over and 100 μl of a 1:1 PBS/luciferin mixture is added to each well. After 5 minutes, the plates are read using the luminescence reader.

In a further test the target is T2, RAR beta (Homo sapiens, UniProt P10826).
T2 sequence (P10826 183-417 limits assumed): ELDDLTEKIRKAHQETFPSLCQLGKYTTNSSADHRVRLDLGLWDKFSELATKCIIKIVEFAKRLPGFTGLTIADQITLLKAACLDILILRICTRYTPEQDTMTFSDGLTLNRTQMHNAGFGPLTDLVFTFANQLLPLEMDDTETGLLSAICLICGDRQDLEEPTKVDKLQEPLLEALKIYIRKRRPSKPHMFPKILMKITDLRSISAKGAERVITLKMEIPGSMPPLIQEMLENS
The test can be described thus: Transactivation test, HeLa cells stably transfected with RAR beta ER-DBD and ERE-luciferase reporter. The settings on record: for AC50: at the reference ligand concentration that gives 80% activation; for Kd: crossed curves against reference antagonist, Schild regression, read-out: RAR beta Kd app. As to the method: as §1, §2, §3, §4, §5, §6, §7

In a further test the target is T3, RAR alpha (Homo sapiens, UniProt P10276).
T3 sequence (P10276 183-417 limits assumed): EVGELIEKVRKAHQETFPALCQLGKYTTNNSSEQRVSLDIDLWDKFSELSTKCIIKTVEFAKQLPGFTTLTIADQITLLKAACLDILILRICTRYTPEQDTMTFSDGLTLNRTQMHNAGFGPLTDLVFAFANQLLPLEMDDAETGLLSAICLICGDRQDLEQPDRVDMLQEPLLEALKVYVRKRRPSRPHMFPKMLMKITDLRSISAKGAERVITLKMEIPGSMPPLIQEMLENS
The test can be described thus: Transactivation test, HeLa cells stably transfected with RAR alpha ER-DBD and ERE-luciferase reporter. As to the method:
as §1
In this study, a constant is determined which is the affinity of the molecule for the receptor. […]
as §4
In the case of an agonist, an AC50 value (concentration that gives 50% of the activity) is calculated by plotting the curve of the product at the concentration of the reference ligand that gives 80% activation. […]

For the compound `CCN(CC)c1ccc(C(COc2ccc(C(=O)O)cc2)=NO)cc1C(C)(C)C` [Ex 1, 4-[2-(3-tert-Butyl-4-diethylaminophenyl)-2-hydroxyiminoethoxy]benzoic acid], at RAR gamma, the activity was half-maximal at 80 nM (AC50) and the Kd was found to be 60 nM. In addition, at RAR beta, the AC50 worked out at 2500 nM and the Kd was 500 nM.

On to `CCN(CC)c1ccc(C(COc2ccc(C(=O)O)c(O)c2)=NO)cc1C(C)(C)C` [Ex 2, 4-[2-(3-tert-Butyl-4-diethylaminophenyl)-2-hydroxyiminoethoxy]-2-hydroxybenzoic acid], for which the AC50 on RAR gamma worked out at 4 nM; on RAR alpha (at the reference ligand concentration that gives 80% activation) it was 5000 nM; on RAR beta, 1000 nM. Further, the Kd on RAR gamma came out at 4 nM; at RAR alpha (crossed curves against reference antagonist, Schild regression, read-out: RAR alpha Kd app), 5000 nM; at RAR beta, 500 nM.
